From article PMC10947579, “Structure‐Based Demystification of Radical Catalysis by a Coenzyme B12 Dependent Enzyme—Crystallographic Study of Glutamate Mutase with Cofactor Homologues” (Angewandte Chemie (Weinheim an Der Bergstrasse, Germany), 2022)

Target: T1, glutamate mutase (GM) (Clostridium cochlearium, UniProt P80077+P80078)
T1 construct: gene glmE; hetero-tetramer (two epsilon, two sigma subunits), reconstituted with cobalamin
T1 sequence (P80077 1-483): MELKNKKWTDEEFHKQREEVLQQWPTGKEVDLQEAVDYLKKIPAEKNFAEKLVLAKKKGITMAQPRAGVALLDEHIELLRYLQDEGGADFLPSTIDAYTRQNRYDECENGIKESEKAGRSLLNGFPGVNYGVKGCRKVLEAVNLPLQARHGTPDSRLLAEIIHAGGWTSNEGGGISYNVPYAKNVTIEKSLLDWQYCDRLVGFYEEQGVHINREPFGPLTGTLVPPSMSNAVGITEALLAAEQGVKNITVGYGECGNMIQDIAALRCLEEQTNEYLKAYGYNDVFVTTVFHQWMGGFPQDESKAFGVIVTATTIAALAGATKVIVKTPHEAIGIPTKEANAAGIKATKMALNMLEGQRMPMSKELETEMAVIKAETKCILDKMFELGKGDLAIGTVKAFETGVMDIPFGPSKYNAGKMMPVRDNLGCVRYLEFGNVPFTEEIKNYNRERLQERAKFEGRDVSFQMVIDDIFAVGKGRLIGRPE
T1 sequence (P80078 1-137): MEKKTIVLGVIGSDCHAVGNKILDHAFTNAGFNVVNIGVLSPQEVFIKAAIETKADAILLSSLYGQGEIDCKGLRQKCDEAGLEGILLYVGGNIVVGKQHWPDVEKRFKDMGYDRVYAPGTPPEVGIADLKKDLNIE
Test: X-ray crystal structure, […] Å
Type: binding
Details: with AdoMeCbl (also bound in the AdoEtCbl complex 6H9F); pseudo-substrate in substrate site of epsilon subunit (arginine claw)

Question: Which “X-ray crystal structure, 1.8 Å” value does the source give for `O=C(O)[C@@H](O)[C@H](O)C(=O)O` [(S,S)‐tartrate] here?
Answer: strong polar binding interactions with the carboxylate groups of an (S,S)‐tartrate ion
